Data on eleven compounds can be found in patent US20230339970A1, “CASEIN KINASE 1 DELTA MODULATORS” (priority 2020, published 2023).

The target of one assay is T1, human CSNK1D (Homo sapiens, UniProt P48730).
T1 construct: expressed in transfected cells
The experiment in a line: Whole Cell nBRET CSNK1D Binding Assay. The note with it: living CHO cells stably expressing human CSNK1D tagged with nanoluciferase; NanoBret tracer 130 nM; 2 hours at 37 C.

For assay [1], the target named is T2, human recombinant GST cleaved CSNK1D (Homo sapiens, UniProt P48730).
T2 construct: GST (cleaved yes); purchased University of Dundee clone DU 19064
T2 sequence (P48730 whole entry): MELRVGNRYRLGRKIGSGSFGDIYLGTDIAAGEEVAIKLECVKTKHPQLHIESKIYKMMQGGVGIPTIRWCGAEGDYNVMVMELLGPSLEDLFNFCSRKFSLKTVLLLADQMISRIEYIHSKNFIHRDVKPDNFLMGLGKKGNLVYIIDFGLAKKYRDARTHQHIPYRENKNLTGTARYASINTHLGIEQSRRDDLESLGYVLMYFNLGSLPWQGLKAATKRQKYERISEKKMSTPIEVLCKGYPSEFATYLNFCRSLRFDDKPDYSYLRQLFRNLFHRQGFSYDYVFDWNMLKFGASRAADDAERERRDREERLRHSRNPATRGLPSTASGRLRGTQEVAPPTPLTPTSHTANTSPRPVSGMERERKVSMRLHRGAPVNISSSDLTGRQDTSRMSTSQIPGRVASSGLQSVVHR
The experiment in a line: Purified Enzyme Assay (ADP-Glo CSNK1D Kinase Assay). Format: biochemical. The note with it: 2 nM CSNK1D; peptide substrate 150 μM; ATP 20 μM; 45 minutes at room temperature. The procedure, abridged: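 Percent activity derived from ADP-Glo quantification of ADP produced. Reactions: compound dose-response with human recombinant GST-cleaved CSNK1D, ATP and substrate peptide PLSRTL-pS-VASLPGL, incubated 45 min at room temperature.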

One may read the IC50 as the concentration at which inhibition is half-maximal.

T1 sequence (P48730 whole entry): as above

On to `Clc1ccc(-c2nn3c(c2-c2ccnc4[nH]ncc24)COCC3)cc1` [Example 67, 2-(4-Chlorophenyl)-3-(1H-pyrazolo[3,4-b]pyridin-4-yl)-6,7-dihydro-4H-pyrazolo[5,1-c][1,4]oxazine], for which the IC50 at human CSNK1D is 243 nM; in assay [1] it was 20 nM.
Turning to `CC1(CC2COC2)CCc2c(-c3ccnc4[nH]ncc34)c(-c3ccc(F)cn3)nn2C1` (single isomer, unassigned) [Example 320, (*R)-4-(2-(5-Fluoropyridin-2-yl)-6-methyl-6-(oxetan-3-ylmethyl)-4,5,6,7-tetrahydropyrazolo[1,5-a]pyridin-3-yl)-1H-pyrazolo[3,4-b]pyridine], the IC50 on human CSNK1D was found to be 105 nM; in assay [1], 14 nM.
For `Fc1ccc(-c2nn3c(c2-c2ccnc4[nH]ncc24)C(F)(F)CC3)nc1` [Example 14, 4-(4,4-Difluoro-2-(5-fluoropyridin-2-yl)-5,6-dihydro-4H-pyrrolo[1,2-b]pyrazol-3-yl)-1H-pyrazolo[3,4-b]pyridine], the IC50 on human CSNK1D is 293 nM; in assay [1], 27 nM.
As to `Fc1ccc(-c2nn3c(c2-c2ccn4nccc4c2)OCC2(CC2)C3)cc1` [Example 466, 2′-(4-Fluorophenyl)-3′-(pyrazolo[1,5-a]pyridin-5-yl)-5′H,7′H-spiro[cyclopropane-1,6′-pyrazolo[5,1-b][1,3]oxazine]], the IC50 on human CSNK1D amounted to 24 nM; in assay [1] it was 12 nM.
As to `Fc1ccc(-c2nn3c(c2-c2ccnc4[nH]ncc24)CCC32CC2)nc1` [Example 249, 2-(5-Fluoro-2-pyridyl)-3-(1H-pyrazolo[3,4-b]pyridin-4-yl)spiro[4,5-dihydropyrrolo[1,2-b]pyrazole-6,1′-cyclopropane]], the IC50 came out at 197 nM at human CSNK1D and 17 nM in assay [1].
For `Fc1ccc(-c2nn3c(c2-c2ccnc4[nH]ncc24)CC(F)(F)CC3)cc1` [Example 46, 4-(5,5-Difluoro-2-(4-fluorophenyl)-4,5,6,7-tetrahydropyrazolo[1,5-a]pyridin-3-yl)-1H-pyrazolo[3,4-b]pyridine], in that order: 82 nM and 8 nM.
Take `CC1(C)Cn2nc(-c3ccc(F)cn3)c(-c3ccn4ncnc4c3)c2CO1` [Example 385, 3-([1,2,4]Triazolo[1,5-a]pyridin-7-yl)-2-(5-fluoropyridin-2-yl)-6,6-dimethyl-6,7-dihydro-4H-pyrazolo[5,1-c][1,4]oxazine]: the results for the IC50 (on human CSNK1D; in assay [1]) were 1570 nM and 50 nM, respectively.
In the case of `Cc1cc(-c2c(-c3ccc(F)cc3)nn3c2OCC2(CC2)C3)c2cn[nH]c2n1` [Example 461, 2′-(4-Fluorophenyl)-3′-(6-methyl-1H-pyrazolo[3,4-b]pyridin-4-yl)-5′H,7′H-spiro[cyclopropane-1,6′-pyrazolo[5,1-b][1,3]oxazine]], the results for the IC50 (on human CSNK1D; in assay [1]) were 2 nM and 1 nM, respectively.
Regarding `CC1COc2c(-c3ccnc4[nH]ncc34)c(-c3ccc(F)cc3)nn2C1` (stereo not shown) [Example 191, (R S)-2-(4-Fluorophenyl)-6-methyl-3-(1H-pyrazolo[3,4-b]pyridin-4-yl)-6,7-dihydro-5H-pyrazolo[5,1-b][1,3]oxazine], the concentration for half-maximal inhibition (IC50) at human CSNK1D was 5 nM; in assay [1], < 0.5 nM.
Regarding `Cc1cc(-c2c(-c3ccc(F)cc3)nn3c2OCCC3)c2cn[nH]c2n1` [Example 185, 2-(4-Fluorophenyl)-3-(6-methyl-1H-pyrazolo[3,4-b]pyridin-4-yl)-6,7-dihydro-5H-pyrazolo[5,1-b][1,3]oxazine], the IC50 came out at 17 nM at human CSNK1D and 1 nM in assay [1].
For `CC1COc2c(-c3ccnc4[nH]ncc34)c(-c3ccc(F)cn3)nn2C1` (stereo not shown) [Example 196, 2-(5-Fluoropyridin-2-yl)-6-methyl-3-(1H-pyrazolo[3,4-b]pyridin-4-yl)-6,7-dihydro-5H-pyrazolo[5,1-b][1,3]oxazine] the same measures were 40 nM and 2 nM.
